Consider 17 molecules from PMC5324103 (Scientific Reports, 2017).

One data set has as its target T1, LXRα (Homo sapiens, UniProt Q13133).
T1 construct: expressed in transfected cells; host or cells: HepG2
T1 sequence (Q13133 209-447 limits assumed): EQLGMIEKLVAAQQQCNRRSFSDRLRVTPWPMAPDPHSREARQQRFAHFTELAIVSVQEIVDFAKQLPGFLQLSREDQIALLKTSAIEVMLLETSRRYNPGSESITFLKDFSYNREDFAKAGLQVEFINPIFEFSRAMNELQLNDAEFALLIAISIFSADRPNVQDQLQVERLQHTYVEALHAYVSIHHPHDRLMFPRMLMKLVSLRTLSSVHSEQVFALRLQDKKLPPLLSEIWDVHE
Kind of data set: LXRα transactivation, luciferase reporter assay in HepG2 cells. The class given is cell-based. The following applies: for EC50: dose-response 1-50 μM, mean ± SE, read-out: LXRα Affinity (EC50); for Emax at 10 µM: compound 10 μM vs GW3965 10 μM (=100%), NA = no activity at 10 μM, read-out: LXRα Efficacy (% vs GW3965). Here is the method: Derivatives 4–30 were tested for their activity in a luciferase reporter assay with HepG2 and HEK-293T cells transfected with LXRα,β and GPBAR1, respectively. Table 1 reports the efficacy of tested compounds compared to those of reference compounds, GW3965 for LXRα/β and TLCA for GPBAR1.
Each compound was tested at the concentration of 10 μM and transactivation activity of GW3965 on LXRs and TLCA on CRE (i.e. TGR5/GPBAR1) was considered equal to 100%.
To evaluate LXRα mediated transactivation, HepG2 cells were transfected with 20 ng of the reporter vector p(UAS)5XTKLuc, 100 ng of a vector containing the ligand binding domain of LXRα cloned upstream of the GAL4-DNA binding domain (i.e. pSG5-LXRαLBD-GAL4DBD) and […] pGL4.70 (Promega), a vector encoding the human Renilla gene. To evaluate GPBAR1 mediated transactivation, HEK-293T cells were transfected with 200 ng of human pGL4.29 (Promega), a reporter vector containing a cAMP response element (CRE) that drives the transcription of the luciferase reporter gene luc2P, with 100 ng of pCMVSPORT6-human GPBAR1, and with 100 ng of pGL4.70 Renilla. To evaluate FXR mediated transactivation, HepG2 cells were transfected with 100 ng of human pSG5-FXR, 100 ng of human pSG5-RXR, 200 ng of the reporter vector p(hsp27)-TK-LUC containing the FXR response element IR1 cloned from the promoter of heat shock protein 27 (hsp27) and with 100 ng of pGL4.70 Renilla. At 24 h post-transfection, cells were stimulated 18 h with 10 μM GW3965, TLCA, or CDCA and compounds 4–30 (10 μM). Luciferase activities were assayed and normalized with Renilla activities. Dose-response curves were performed in HepG2 and HEK-293T cells transfected as described above and then treated with increasing concentrations of compounds 4, 5, 8, 9, 12–15, 17, 20, 21, 24, 25, 27, 29, 30 (1, 5, 10, 25 and 50 μM). At 18 h post stimulations, cellular lysates were assayed for luciferase and Renilla activities using the Dual-Luciferase Reporter assay system (E1980, Promega). Luminescence was measured using Glomax 20/20 luminometer (Promega). Luciferase activities (RLU) were normalized with Renilla activities (RRU).
Background: Reporter assays use an easily measured gene product as a stand-in for the process of interest.

Another data set addresses T2, GPBAR1 (Homo sapiens, UniProt Q8TDU6).
T2 construct: expressed in transfected cells; host or cells: HEK-293T
T2 sequence (Q8TDU6 1-330): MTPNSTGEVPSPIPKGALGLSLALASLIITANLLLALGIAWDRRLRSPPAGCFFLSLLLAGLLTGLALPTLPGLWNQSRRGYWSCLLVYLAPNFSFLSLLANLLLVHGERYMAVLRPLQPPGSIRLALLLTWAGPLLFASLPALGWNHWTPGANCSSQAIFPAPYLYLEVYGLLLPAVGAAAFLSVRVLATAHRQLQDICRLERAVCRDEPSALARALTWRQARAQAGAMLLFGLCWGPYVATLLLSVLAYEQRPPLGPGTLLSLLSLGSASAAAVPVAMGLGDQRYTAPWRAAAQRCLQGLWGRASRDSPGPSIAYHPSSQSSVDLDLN
Kind of data set: GPBAR1 transactivation, CRE-luciferase reporter assay in HEK-293T cells. It is filed as cell-based. The following applies: dose-response 1-50 μM, mean ± SE of 3 experiments in duplicate, read-out: GPBAR1 Affinity (EC50).

A further data set deals with C57BL6 mice. Kind of data set: Two-week oral administration to intact C57BL6 mice (serum chemistry, liver histology, liver and ileum gene expression). It is filed as in vivo. The following applies: 30 mg/Kg daily by oral gavage, two weeks. Here is the method:
C57BL6 mice were administered with 14 (30 mg/Kg daily by oral gavage) for two weeks.
C57BL6 mice were originally donated by Dr. Galya Vassileva (Schering-Plough Research Institute, Kenilworth). The colonies were maintained in the animal facility of University of Perugia. […] Mice were housed under controlled temperatures (22 °C) and photoperiods (12:12-h light/dark cycle), allowed unrestricted access to standard mouse chow and tap water and allowed to acclimate to these conditions for at least 5 days before inclusion in an experiment. The study was conducted in agreement with the Italian law and the protocol was approved by ethical committee of University of Perugia and by National committee of Ministry of Health (permission n. 42/2014-B). The Veterinarian monitored the health and body conditions of the animals daily in the animal facility. The study protocol caused minor suffering; however, animals that lost more than 25% of the initial body weight were euthanized. At the day of sacrifice mice were deeply anesthetized with a mixture of tiletamine […] and zolazepam […]/xylazine at a dose of 50/5 mg/Kg. Blood, liver and terminal ileum were collected for further analysis. Aspartate aminotransferase (AST), total cholesterol and triglycerides were measured by routine biochemical clinical chemistry. For histological examination, portions of liver lobes were fixed in 10% formalin, embedded in paraffin, sectioned (5 μm thin) and stained with Hematoxylin/Eosin (H&E) for morphometric analysis.

The next data set deals with ABCA1 mRNA expression. The data set can be described thus: RT-PCR of LXRα target gene ABCA1 in HepG2 cells. The settings on record: Homo sapiens, HepG2, 18 h, read-out: EC50 for induction of ABCA1 gene expression.
A further data set has as its system SREBP1c mRNA expression. The data set can be described thus: RT-PCR of LXRα target gene SREBP1c in HepG2 cells. The settings on record: Homo sapiens, HepG2, 18 h, read-out: EC50 for induction of SREBP1c gene expression.
Data set [1] has as its system pro-glucagon mRNA expression. The data set can be described thus: RT-PCR of GPBAR1 target gene pro-glucagon in Glutag cells. The following applies: Mus musculus, 18 h, read-out: EC50 for induction of pro-glucagon mRNA.
Experimental: (§1) HepG2 and Glutag cells were plated at 1 × 10^6 cells/well in a 6 well plate.
(§2) Total RNA was isolated from HepG2 or Glutag cells and from animal tissues (liver and terminal ileum) using the TRIzol reagent according to the manufacturer’s specifications (Invitrogen). One microgram of purified RNA was treated with DNase-I and reverse transcribed with Superscript II (Invitrogen). For Real Time PCR, 25 ng template was dissolved in 25 μL containing 200 nmol/L of each primer and 12.5 μL of 2 × SYBR FAST Universal ready mix (Invitrogen). […] The relative mRNA expression was calculated and expressed as 2^(−ΔΔCt).
Data set [2] concerns GPBAR1 (also known as TGR5). The settings on record: in vitro studies; cited from earlier work.

Experimental for ABCA1 mRNA expression: as §1, §2
Experimental for SREBP1c mRNA expression: as §1, §2

As a reminder, the EC50 is the concentration that produces a half-maximal response. In the case of `CC(C)=CCCC(C)C1CCC2C3CC(O)C4CC(O)CCC4(C)C3CCC12C` (stereo not shown) [Compound 4], the EC50 at LXRα was determined as 6.99 ± 0.31 µM.
For the molecule `CC(C)CCCC(C)C1CCC2C3CC(O)C4CC(O)CCC4(C)C3CCC12C` (stereo not shown) [Compound 5], on LXRα, the Emax at 10 µM is 73% and the EC50 turned out to be 8.2 ± 0.16 µM.
With `C=CCCC(C)C1CCC2C3CC(O)C4CC(O)CCC4(C)C3CCC12C` (stereo not shown) [Compound 8], the EC50 on LXRα was 2.7 ± 0.65 µM.
`CCCCC(C)C1CCC2C3CC(O)C4CC(O)CCC4(C)C3CCC12C` (stereo not shown) [Compound 9]: the EC50 on LXRα came to 5.1 ± 0.43 µM.
On to `CC(CCCCc1ccccc1)C1CCC2C3CC(O)C4CC(O)CCC4(C)C3CCC12C` (stereo not shown) [Compound 12], for which, on LXRα, the Emax at 10 µM came out at 63% and the EC50 was found to be 12.4 ± 0.41 µM.
On to `CC(C)=CCC(C)C1CCC2C3CC(O)C4CC(O)CCC4(C)C3CCC12C` (stereo not shown) [Compound 13], for which the EC50 on GPBAR1 worked out at 4.2 ± 0.79 µM; on LXRα it was 22.3 ± 3.05 µM.
Regarding `CC(C)CCC(C)C1CCC2C3CC(O)C4CC(O)CCC4(C)C3CCC12C` (stereo not shown) [Compound 14], the EC50 at GPBAR1 was 4.9 ± 0.2 µM. Moreover, on LXRα, the Emax at 10 µM is 109% and the EC50 was found to be 3.2 ± 0.03 µM. For the same molecule, the “expression of GPBAR1 target genes GLP1 and Fgf21 in terminal ileum” value in the data set with C57BL6 mice (Real-Time PCR) is recorded as “increases”. Besides, the “liver expression of steatosis marker genes FAS, SREBP1c, CD36 and PPARs” value in the data set on C57BL6 mice (Real-Time PCR on liver tissue) is reported as “does not induce”. Further, in the data set on C57BL6 mice (vs control), the “liver histology (H&E staining), fat deposition” value is on record as “no differences”; the “plasmatic level of AST” value is listed as “no effects”; the “plasmatic level of cholesterol” value is recorded as “no effects”; the “plasmatic level of triglycerides” value is on record as “no effects”. Further, in the data set with ABCA1 mRNA expression, the concentration for a half-maximal effect (EC50) came out at 8.3 µM. Also, the EC50 with SREBP1c mRNA expression came out at 5.8 µM. For the same molecule, the 50% effective concentration (EC50) in data set [1] stood at 6.5 µM.
As for `C=CCC(C)C1CCC2C3CC(O)C4CC(O)CCC4(C)C3CCC12C` (stereo not shown) [Compound 15], the EC50 at GPBAR1 worked out at 3.7 ± 0.38 µM.
With `C=CC(C)C1CCC2C3CC(O)C4CC(O)CCC4(C)C3CCC12C` (stereo not shown) [Compound 17], at GPBAR1, the 50% effective concentration (EC50) was determined as 2.54 ± 0.015 µM.
As to `CCCC[C@@H](C)[C@H]1CCC2C3CC[C@@H]4C[C@H](O)CC[C@]4(C)C3CC[C@@]21C` (stereo partly shown) [Compound 20], the EC50 at GPBAR1 stood at 6.8 ± 0.08 µM.
With `CC(C)=CCC[C@@H](C)[C@H]1CCC2C3CC[C@@H]4C[C@H](O)CC[C@]4(C)C3CC[C@@]21C` (stereo partly shown) [Compound 21], on GPBAR1, the EC50 is 5.9 ± 0.055 µM.
Take `CC[C@@H](C)[C@H]1CCC2C3CC[C@@H]4C[C@H](O)CC[C@]4(C)C3CC[C@@]21C` (stereo partly shown) [Compound 24]: the half-maximal effective concentration (EC50) on GPBAR1 came out at 0.91 ± 0.092 µM.
`CC(C)=CCC[C@@H](C)[C@H]1CCC2C3CC[C@H]4C[C@@H](O)CC[C@]4(C)C3CC[C@@]21C` (stereo partly shown) [Compound 25]: the EC50 at GPBAR1 amounted to 7.6 ± 0.71 µM.
For the molecule `C=CCC[C@@H](C)[C@H]1CCC2C3CC[C@H]4C[C@@H](O)CC[C@]4(C)C3CC[C@@]21C` (stereo partly shown) [Compound 27], the EC50 on GPBAR1 stood at 1 ± 0.062 µM.
On to `C=C[C@@H](C)[C@H]1CCC2C3CC[C@H]4C[C@@H](O)CC[C@]4(C)C3CC[C@@]21C` (stereo partly shown) [Compound 29], for which the EC50 on GPBAR1 came to 4.9 ± 0.06 µM.
Same read-out and setting: next, `CC[C@@H](C)[C@H]1CCC2C3CC[C@H]4C[C@@H](O)CC[C@]4(C)C3CC[C@@]21C` (stereo partly shown) [Compound 30]: 1.98 ± 0.145 µM.
On to `C[C@H](CCC(=O)O)[C@H]1CC[C@H]2[C@@H]3C[C@H](O)[C@@H]4C[C@H](O)CC[C@]4(C)[C@H]3CC[C@]12C` [HDCA, hyodeoxycholic acid], for which the EC50 in data set [2] was 31.6 µM.
